Our source for the AC50 values is US20250171438A1 (Agios Pharmaceuticals, Inc., priority 2022, published 2025).

SMILES strings stand for the structures. Like-named read-outs stand apart in the source and are kept apart here. Bounds are passed on as bounds.

What is called AC50 is the concentration at which the activity in the assay is half-maximal.

This experiment addresses T1, human PAH with the R408W mutation (Homo sapiens, UniProt P00439, R408W).
T1 construct: expressed in transfected cells
T1 sequence (P00439 1-452 R408W): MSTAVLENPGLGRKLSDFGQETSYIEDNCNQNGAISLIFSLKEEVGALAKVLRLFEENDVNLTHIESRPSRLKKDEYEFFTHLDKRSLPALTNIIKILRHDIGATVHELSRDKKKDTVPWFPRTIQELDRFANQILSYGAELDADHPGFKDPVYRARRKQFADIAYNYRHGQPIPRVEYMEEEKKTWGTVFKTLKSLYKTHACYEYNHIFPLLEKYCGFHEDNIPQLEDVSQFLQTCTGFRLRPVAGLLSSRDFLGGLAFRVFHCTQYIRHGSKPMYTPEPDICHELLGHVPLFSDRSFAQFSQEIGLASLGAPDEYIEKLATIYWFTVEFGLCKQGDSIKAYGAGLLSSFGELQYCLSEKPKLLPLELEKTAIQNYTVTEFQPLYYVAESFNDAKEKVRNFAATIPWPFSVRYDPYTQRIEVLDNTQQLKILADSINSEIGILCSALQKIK
The experiment can be described thus: Cell Based Phenylalanine Flux Assay. Particulars: A375 cells expressing human R408W PAH, 13C-Tyrosine by LC-MS, average where tested multiple times, read-out: AC50.

On to `Cc1nc(CCN(C)C)oc1C(=O)N1CCc2[nH]cnc2[C@@H]1c1nc2ccccc2s1` [Example 1660, (R)-(4-(benzo[d]thiazol-2-yl)-6,7-dihydro-1H-imidazo[4,5-c]pyridin-5(4H)-yl)(2-(2-(dimethylamino)ethyl)-4-methyloxazol-5-yl)methanone], for which the AC50 (24 hrs compound incubation) was over 5 µM.

With `O=C(c1nnc(CCC(F)(F)F)o1)N1CCc2[nH]cnc2C1c1nc2ccccc2s1` (centres unmarked), the AC50 (24 hrs with compound) lay within 1 to 5 µM.

As for `O=C(c1ccsn1)N1CCc2[nH]cnc2C1c1nc2ccccc2s1` (centres unmarked), the AC50 (24 hrs with compound) was over 5 µM.

As for `Cc1nc(-c2cnn(C)c2)oc1C(=O)N1CCc2[nH]cnc2[C@H]1c1nc2c(F)cccc2s1` [Example 1378, (S)-(4-(4-fluorobenzo[d]thiazol-2-yl)-6,7-dihydro-1H-imidazo[4,5-c]pyridin-5(4H)-yl)(4-methyl-2-(1-methyl-1H-pyrazol-4-yl)oxazol-5-yl)methanone], under “24 hrs compound incubation”, the AC50 was under 0.5 µM.

In the case of `O=C(CCc1nccs1)N1CCc2[nH]cnc2[C@H]1c1nc2ccc(Br)cc2[nH]1` [Example 908, (S)-1-(4-(6-bromo-1H-benzo[d]imidazol-2-yl)-6,7-dihydro-1H-imidazo[4,5-c]pyridin-5(4H)-yl)-3-(thiazol-2-yl)propan-1-one], the AC50 (24 hrs compound incubation) was under 0.5 µM.

On to `O=C(c1ccc(F)cc1)N1CCc2[nH]cnc2C1c1nc2ccccc2[nH]1` (centres unmarked), for which the AC50 (24 hrs with compound) fell in the range of 1 to 5 µM.

Take `Cc1ocnc1CC(=O)N1CCc2[nH]cnc2[C@@H]1c1nc2ccccc2s1` [Example 1532, (R)-1-(4-(benzo[d]thiazol-2-yl)-6,7-dihydro-1H-imidazo[4,5-c]pyridin-5(4H)-yl)-2-(5-methyloxazol-4-yl)ethanone]: the AC50 (24 hrs compound incubation) is over 5 µM.

Consider `Cc1cc(C(=O)N2CCc3[nH]cnc3C2c2nc3c(F)cccc3s2)n(-c2ccc(F)cc2)n1` (centres unmarked), for which the AC50 (24 hrs with compound) was over 5 µM.

For the compound `O=C(CCc1nnc(Br)s1)N1CCc2[nH]cnc2[C@@H]1c1nc2ccccc2s1` [Example 1090, (R)-1-(4-(benzo[d]thiazol-2-yl)-6,7-dihydro-1H-imidazo[4,5-c]pyridin-5(4H)-yl)-3-(5-bromo-1,3,4-thiadiazol-2-yl)propan-1-one], the half-maximal activity concentration (AC50) (24 hrs compound incubation) is over 5 µM.

Consider `Cc1cccc2sc([C@@H]3c4nc[nH]c4CCN3C(=O)c3ocnc3C#N)nc12` [Example 2019, (S)-5-(4-(4-methylbenzo[d]thiazol-2-yl)-4,5,6,7-tetrahydro-1H-imidazo[4,5-c]pyridine-5-carbonyl)oxazole-4-carbonitrile], for which the AC50 (24 hrs compound incubation) was under 0.5 µM.

Turning to `CC(F)c1nc(C(F)F)c(C(=O)N2CCc3[nH]cnc3[C@H]2c2nc3c(F)cccc3s2)o1` (single isomer, unassigned) [Example 2073], the AC50 (24 hrs compound incubation) is under 0.5 µM.

With `O=C(Cc1nc2ccccc2s1)N1CCc2[nH]cnc2[C@H]1c1nc2ccccc2[nH]1` [Example 905], the AC50 (24 hrs compound incubation) fell in the range of 1 to 5 µM.

Turning to `O=C(c1cnn2ccc(Br)cc12)N1CCc2[nH]cnc2[C@H]1c1nc2c(F)cccc2s1` [Example 1171], the AC50 (24 hrs compound incubation) was under 0.5 µM.

On to `O=C(Cc1nccs1)N1CCc2[nH]cnc2[C@H]1c1nc2cccc(Br)c2s1` [Example 1176, (S)-1-(4-(7-bromobenzo[d]thiazol-2-yl)-6,7-dihydro-1H-imidazo[4,5-c]pyridin-5(4H)-yl)-2-(thiazol-2-yl)ethanone], for which the AC50 (24 hrs compound incubation) fell in the range of 0.5 to 1 µM.

In the case of `CC(F)c1nc(C(F)F)c(C(=O)N2CCc3[nH]cnc3[C@@H]2c2nc3c(F)cccc3s2)o1` (stereo partly drawn) [Example 2076, (4-(difluoromethyl)-2-(1-fluoroethyl)oxazol-5-yl)((R)-4-(4-fluorobenzo[d]thiazol-2-yl)-6,7-dihydro-1H-imidazo[4,5-c]pyridin-5(4H)-yl)methanone], for the setting “24 hrs compound incubation”, the AC50 was 0.5 to 1 µM.

Regarding `O=C(c1cnn2ccc(F)cc12)N1CCc2[nH]cnc2C1c1nc2ccc(Br)cc2[nH]1` (centres unmarked), the half-maximal activity concentration (AC50) (24 hrs with compound) lay within 1 to 5 µM.

Turning to `Cn1nc(C(C)(C)C#N)nc1C(=O)N1CCc2[nH]cnc2[C@@H]1c1nc2ccccc2s1` [Example 2046, (R)-2-(5-(4-(benzo[d]thiazol-2-yl)-4,5,6,7-tetrahydro-1H-imidazo[4,5-c]pyridine-5-carbonyl)-1-methyl-1H-1,2,4-triazol-3-yl)-2-methylpropanenitrile], the AC50 (24 hrs compound incubation) was 1 to 5 µM.

Turning to `Cc1nc(C(F)(F)F)oc1C(=O)N1CCc2[nH]cnc2[C@H]1c1nc2ccccc2s1` [Example 1393], the AC50 (24 hrs compound incubation) was under 0.5 µM.

Turning to `O=C(c1nnc(N2CC(F)C2)o1)N1CCc2[nH]cnc2C1c1nc2ccccc2s1` (centres unmarked), for the setting “24 hrs with compound”, the AC50 lay within 1 to 5 µM.

As for `Cc1n[nH]cc1-c1nnc(C(=O)N2CCc3[nH]cnc3[C@@H]2c2nc3ccccc3s2)o1` [Example 1942, (R)-(4-(benzo[d]thiazol-2-yl)-6,7-dihydro-1H-imidazo[4,5-c]pyridin-5(4H)-yl)(5-(3-methyl-1H-pyrazol-4-yl)-1,3,4-oxadiazol-2-yl)methanone], the AC50 (24 hrs compound incubation) lay within 1 to 5 µM.

With `Cc1ccc2c(C(=O)N3CCc4[nH]cnc4[C@@H]3c3nc4c(F)cccc4s3)cnn2c1` [Example 1174, (R)-(4-(4-fluorobenzo[d]thiazol-2-yl)-6,7-dihydro-1H-imidazo[4,5-c]pyridin-5(4H)-yl)(6-methylpyrazolo[1,5-a]pyridin-3-yl)methanone], the AC50 (24 hrs compound incubation) was 1 to 5 µM.

With `O=C(c1nc2ccccc2o1)N1CCc2[nH]cnc2[C@H]1c1nc2ccccc2s1` [Example 1129, (S)-benzo[d]oxazol-2-yl(4-(benzo[d]thiazol-2-yl)-1,4,6,7-tetrahydro-5H-imidazo[4,5-c]pyridin-5-yl)methanone], the AC50 (24 hrs compound incubation) is under 0.5 µM.

As to `O=C(c1cnn2cc(C3CC3)ccc12)N1CCc2[nH]cnc2[C@H]1c1nc2ccccc2s1` [Example 1191], the AC50 (24 hrs compound incubation) was 0.5 to 1 µM.

`CN(C)Cc1nc(C(F)F)c(C(=O)N2CCc3[nH]cnc3[C@H]2c2nc3ccccc3s2)o1` [Example 1781]: the AC50 (24 hrs compound incubation) is under 0.5 µM.

As for `O=C(c1nncs1)N1CCc2[nH]cnc2[C@@H]1c1nc2ccc(Cl)cc2[nH]1` [Example 957, (R)-(4-(6-chloro-1H-benzo[d]imidazol-2-yl)-6,7-dihydro-1H-imidazo[4,5-c]pyridin-5(4H)-yl)(1,3,4-thiadiazol-2-yl)methanone], for the setting “24 hrs compound incubation”, the half-maximal activity concentration (AC50) was over 5 µM.

Turning to `O=C(c1oc(N2CCOCC2)nc1C(F)(F)F)N1CCc2[nH]cnc2[C@H]1c1nc2ccccc2s1` [Example 2165], the AC50 (24 hrs compound incubation) was under 0.5 µM.

Take `COc1cccc(C=CC(=O)N2CCc3[nH]cnc3C2c2nc3ccccc3[nH]2)c1` (centres unmarked): the AC50 (24 hrs with compound) lay in the range of 1 to 5 µM.

For the compound `CCc1nnc(CCC(=O)N2CCc3[nH]cnc3[C@@H]2c2nc3ccccc3s2)s1` [Example 1116, (R)-1-(4-(benzo[d]thiazol-2-yl)-6,7-dihydro-1H-imidazo[4,5-c]pyridin-5(4H)-yl)-3-(5-ethyl-1,3,4-thiadiazol-2-yl)propan-1-one], where the note is “24 hrs compound incubation”, the AC50 is over 5 µM.

Turning to `O=C(c1nnc(-c2ccccc2)s1)N1CCc2[nH]cnc2[C@H]1c1nc2ccccc2s1` [Example 1419], the AC50 (24 hrs compound incubation) is under 0.5 µM.

In the case of `COCc1ncc(C(=O)N2CCc3[nH]cnc3C2c2nc3ccccc3s2)o1` (centres unmarked), the AC50 (24 hrs with compound) was in the range of 1 to 5 µM.

Consider `Cc1nnc(C(=O)N2CCc3[nH]cnc3C2c2nc3ccccc3[nH]2)o1` (centres unmarked), for which the AC50 (24 hrs with compound) lay within 1 to 5 µM.

In the case of `O=C(c1nccs1)N1CCc2[nH]cnc2[C@H]1c1nc2cccc(Br)c2s1` [Example 1200, (S)-(4-(7-bromobenzo[d]thiazol-2-yl)-6,7-dihydro-1H-imidazo[4,5-c]pyridin-5(4H)-yl)(thiazol-2-yl)methanone], the concentration at half-maximal activity (AC50) (24 hrs compound incubation) was 0.5 to 1 µM.

`Cc1ncc(CC(=O)N2CCc3[nH]cnc3C2c2nc3ccccc3s2)o1` (centres unmarked): the AC50 (24 hrs with compound) lay within 1 to 5 µM.

Consider `O=C(c1nccs1)N1CCc2[nH]cnc2[C@H]1c1nc2cccc(Cl)c2[nH]1` [Example 984, (S)-(4-(7-chloro-1H-benzo[d]imidazol-2-yl)-6,7-dihydro-1H-imidazo[4,5-c]pyridin-5(4H)-yl)(thiazol-2-yl)methanone], for which the AC50 (24 hrs compound incubation) lay within 0.5 to 1 µM.

As to `CC1CN(C(=O)c2nnc(C(C)(C)O)o2)C(c2nc3ccccc3s2)c2nc[nH]c21` (centres unmarked), the AC50 (24 hrs with compound) is over 5 µM.

Turning to `O=C(c1nc(Cl)cs1)N1CCc2[nH]cnc2[C@H]1c1nc2cccc(F)c2s1` [Example 1263], where the note is “24 hrs compound incubation”, the AC50 was in the range of 1 to 5 µM.

For `Cc1cc(C2(C(=O)N3CCc4[nH]cnc4[C@H]3c3nc4ccccc4s3)CC2)on1` [Example 1549], for the setting “24 hrs compound incubation”, the AC50 is under 0.5 µM.

For the compound `O=C(c1nnc(-c2cnn(C(F)F)c2)o1)N1CCc2[nH]cnc2[C@H]1c1nc2c(F)cccc2s1` [Example 1824, (S)-(5-(1-(difluoromethyl)-1H-pyrazol-4-yl)-1,3,4-oxadiazol-2-yl)(4-(4-fluorobenzo[d]thiazol-2-yl)-6,7-dihydro-1H-imidazo[4,5-c]pyridin-5(4H)-yl)methanone], the AC50 (24 hrs compound incubation) was under 0.5 µM.

As for `CC(C)(C)c1ncc(C(=O)N2CCc3[nH]cnc3[C@@H]2c2nc3c(F)cccc3s2)s1` [Example 1426, (R)-(2-(tert-butyl)thiazol-5-yl)(4-(4-fluorobenzo[d]thiazol-2-yl)-6,7-dihydro-1H-imidazo[4,5-c]pyridin-5(4H)-yl)methanone], the concentration at half-maximal activity (AC50) (24 hrs compound incubation) was in the range of 0.5 to 1 µM.

As to `Fc1ccc2sc(CN3CCc4[nH]cnc4C3c3nc4cc(F)ccc4s3)nc2c1` (centres unmarked), the AC50 (24 hrs with compound) was over 5 µM.

Consider `O=C(CCc1ccc(F)cc1)N1CCc2[nH]cnc2[C@H]1c1nc2ccccc2s1` [Example 1005], for which the AC50 (24 hrs compound incubation) is 0.5 to 1 µM.
